One compound from article PMC3391913, “Cellular Immune Reactions of the Sunn Pest, Eurygaster integriceps, to the Entomopathogenic Fungus, Beauveria bassiana and Its Secondary Metabolites” (Journal of Insect Science, 2011) can be followed below.

This test concerns T1, phenoloxidase (PO).
T1 construct: gene prophenoloxidase; native, unpurified hemocyte lysate supernatant of adults; bands of 46 and 59 kDa on native PAGE
The test is described as follows: spectrophotometric phenoloxidase assay at […] nm, fit in SigmaPlot. The format is biochemical, Eurygaster integriceps. As to conditions: control insects without fungal metabolite; hemocyte lysate; 3-10 mM substrate; phosphate buffer pH 6.5; 30 °C.

Turning to `N[C@@H](Cc1ccc(O)c(O)c1)C(=O)O` [L-dihydroxyphenylalanine], the Km stood at 1630 µM.
